Data: ChEMBL document CHEMBL1137501, “Identification and synthesis of major metabolites of Vasopressin V2-receptor agonist WAY-151932, and antagonist, Lixivaptan” (Bioorg Med Chem Lett, 2007)

Columns and labels:
Rattus norvegicus [1] = experiment: Effect on urine volume in rat 10 mg/kg, po relative to control; format: functional
Vasopressin V2 receptor [2] = target: T1, Vasopressin V2 receptor (Homo sapiens, UniProt P30518); experiment: Displacement of [3H]AVP from human vasopressin V2 receptor expressed in CHO cells at 1000 nM; format: cell-based
T1 sequence (P30518 whole entry): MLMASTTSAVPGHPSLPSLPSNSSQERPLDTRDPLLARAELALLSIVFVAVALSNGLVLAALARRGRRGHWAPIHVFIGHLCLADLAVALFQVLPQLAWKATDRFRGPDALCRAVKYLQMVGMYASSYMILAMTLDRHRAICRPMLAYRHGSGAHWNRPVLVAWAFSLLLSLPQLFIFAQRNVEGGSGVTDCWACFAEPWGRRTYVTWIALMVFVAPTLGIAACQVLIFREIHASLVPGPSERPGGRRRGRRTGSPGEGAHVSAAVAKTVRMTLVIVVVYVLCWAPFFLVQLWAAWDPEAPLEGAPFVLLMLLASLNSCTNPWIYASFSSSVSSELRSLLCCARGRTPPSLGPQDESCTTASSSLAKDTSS

[3] = target: T2, Oxytocin receptor (Homo sapiens) (UniProt P30559); experiment: Displacement of [3H]oxytocin from human oxytocin receptor expressed in CHO cells at 1000 nM; format: cell-based
T2 sequence (whole entry): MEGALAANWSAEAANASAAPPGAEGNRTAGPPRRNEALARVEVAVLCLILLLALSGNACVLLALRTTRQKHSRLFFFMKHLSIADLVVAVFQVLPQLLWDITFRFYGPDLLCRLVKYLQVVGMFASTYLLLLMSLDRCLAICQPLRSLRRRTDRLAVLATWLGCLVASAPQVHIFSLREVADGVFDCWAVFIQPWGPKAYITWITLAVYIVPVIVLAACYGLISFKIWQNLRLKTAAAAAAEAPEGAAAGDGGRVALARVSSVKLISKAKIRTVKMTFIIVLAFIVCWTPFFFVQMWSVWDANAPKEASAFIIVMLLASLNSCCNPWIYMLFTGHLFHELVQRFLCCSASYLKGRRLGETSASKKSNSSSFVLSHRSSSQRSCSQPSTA

Vasopressin V1a receptor [4] = target: T3, Vasopressin V1a receptor (Homo sapiens, UniProt P37288); experiment: Displacement of [3H]manning ligand from human vasopressin V1a receptor expressed in CHO cells at 1000 nM; format: cell-based
Target sequence in this assay (P37288 whole entry, looked up): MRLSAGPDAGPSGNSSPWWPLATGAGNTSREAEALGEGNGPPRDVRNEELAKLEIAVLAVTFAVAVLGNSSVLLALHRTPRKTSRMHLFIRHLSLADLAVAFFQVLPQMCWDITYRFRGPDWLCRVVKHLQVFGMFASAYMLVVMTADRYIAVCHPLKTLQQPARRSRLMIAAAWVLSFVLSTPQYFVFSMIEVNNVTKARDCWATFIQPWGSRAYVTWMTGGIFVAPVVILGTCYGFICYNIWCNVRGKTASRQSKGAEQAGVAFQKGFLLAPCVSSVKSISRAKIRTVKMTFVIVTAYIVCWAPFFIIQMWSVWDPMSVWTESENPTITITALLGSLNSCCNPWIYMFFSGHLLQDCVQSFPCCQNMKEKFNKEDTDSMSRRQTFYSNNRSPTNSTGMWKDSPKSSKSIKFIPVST

Vasopressin V2 receptor [5] = target: T1, Vasopressin V2 receptor; experiment: Displacement of [3H]AVP from human vasopressin V2 receptor expressed in mouse LV2 cells; format: cell-based
Vasopressin V2 receptor [6] = target: T1, Vasopressin V2 receptor; experiment: Displacement of [3H]AVP from human vasopressin V2 receptor expressed in CHO cells; format: cell-based
Vasopressin V1a receptor [7] = target: T3, Vasopressin V1a receptor; experiment: Displacement of [3H]manning ligand from human vasopressin V1a receptor expressed in CHO cells; format: cell-based
Target sequence in this assay (P37288 whole entry): as the sequence (P37288 whole entry, looked up) above

Rattus norvegicus [8] = experiment: Effect on urine volume in rat 10 mg/kg, iv relative to control; format: functional
Oxytocin receptor = target: T4, Oxytocin receptor (Homo sapiens, UniProt P30559); experiment: Displacement of [3H]oxytocin from human oxytocin receptor expressed in CHO cells; format: cell-based
T4 sequence (P30559 whole entry): T2 sequence (whole entry)

[9] = target: T2, Oxytocin receptor (Homo sapiens); experiment: Displacement of [3H]oxytocin from human oxytocin receptor expressed in CHO cells at 100 nM; format: cell-based
Vasopressin V1a receptor [10] = target: T3, Vasopressin V1a receptor; experiment: Displacement of [3H]manning ligand from human vasopressin V1a receptor expressed in CHO cells at 100 nM; format: cell-based
Target sequence in this assay (P37288 whole entry, looked up): as above

Vasopressin V2 receptor [11] = target: T1, Vasopressin V2 receptor; experiment: Displacement of [3H]AVP from human vasopressin V2 receptor expressed in CHO cells at 100 nM; format: cell-based

Row | Compound | IC50 (Vasopressin V1a receptor [7]) [nM] | IC50 (Oxytocin receptor) [nM] | Activity (Rattus norvegicus [1]) [%] | also measured
1 | Cc1ccn(-c2ccc(C(=O)N3CC4=CCC(=O)N4Cc4ccccc43)c(Cl)c2)n1 | – | – | 0 | inhibition (Vasopressin V2 receptor [2]): 40%; inhibition [3]: 9%; inhibition (Vasopressin V1a receptor [4]): -3%
2 | Cc1ccn(-c2ccc(C(=O)N3C=C4CCC(=O)N4Cc4ccccc43)c(Cl)c2)n1 | – | – | 0 | inhibition (Vasopressin V1a receptor [4]): 4%; IC50 (Vasopressin V2 receptor [5]): 1210 nM
3 | Cc1ccn(-c2ccc(C(=O)N3Cc4cccn4Cc4ccccc43)c(Cl)c2)n1 | – | 353 | -82 | –
4 | Cc1ccc(F)cc1C(=O)Nc1ccc(C(=O)N2C=C3C(O)CC(=O)N3Cc3ccccc32)c(Cl)c1 (stereo not drawn) | – | – | 102 | –
5 | Cc1ccc(F)cc1C(=O)Nc1ccc(C(=O)N2CC3=CCC(=O)N3Cc3ccccc32)c(Cl)c1 | – | – | 131 | –
6 | Cc1ccn(-c2ccc(C(=O)Nc3ccccc3Cn3cccc3C(=O)O)c(Cl)c2)n1 | – | – | – | inhibition (Vasopressin V2 receptor [2]): 1%; inhibition [3]: -10%
7 | O=C(O)c1ccn(-c2ccc(C(=O)N3Cc4cccn4Cc4ccccc43)c(Cl)c2)n1 | – | – | 0 | –
8 | Cc1ccc(F)cc1C(=O)Nc1ccc(C(=O)Nc2ccccc2Cn2cccc2C=O)c(Cl)c1 | – | – | – | inhibition [9]: 12%; inhibition (Vasopressin V1a receptor [10]): -6%; inhibition (Vasopressin V2 receptor [11]): 3%
9 | O=C(c1ccc(-n2ccc(CO)n2)cc1Cl)N1Cc2cccn2Cc2ccccc21 | – | – | -82 | –
10 | Cc1ccc(F)cc1C(=O)Nc1ccc(C(=O)Nc2ccccc2Cn2cccc2C(=O)O)c(Cl)c1 | > 1000 | > 1000 | – | IC50 (Vasopressin V2 receptor [6]): > 1000 nM; Activity (Rattus norvegicus [8]): 6.9%
11 | Cc1ccn(-c2ccc(C(=O)N3CC4C=CC(=O)N4Cc4ccccc43)c(Cl)c2)n1 (stereo not drawn) | – | – | 16 | inhibition (Vasopressin V2 receptor [2]): 16%; inhibition [3]: -4%; inhibition (Vasopressin V1a receptor [4]): -8%
12 | Cc1ccn(-c2ccc(C(=O)Nc3ccccc3C(=O)O)c(Cl)c2)n1 | – | – | – | inhibition (Vasopressin V2 receptor [2]): 3%; inhibition (Vasopressin V1a receptor [4]): -7%

More lines, main results first:

Row | IC50 (Vasopressin V1a receptor [7]) [nM] | IC50 (Oxytocin receptor) [nM] | Compound | Activity (Rattus norvegicus [1]) [%] | also measured
13 | > 1000 | > 1000 | Cc1ccc(F)cc1C(=O)Nc1ccc(C(=O)Nc2ccccc2C(=O)O)c(Cl)c1 | – | IC50 (Vasopressin V2 receptor [6]): > 1000 nM; Activity (Rattus norvegicus [8]): -6%
14 | > 1000 | > 1000 | Cc1ccc(F)cc1C(=O)Nc1ccc(C(=O)N2CC3C=CC(=O)N3Cc3ccccc32)c(Cl)c1 (stereo not drawn) | -26 | IC50 (Vasopressin V2 receptor [6]): 34 nM
15 | > 1000 | > 1000 | Cc1ccc(F)cc1C(=O)Nc1ccc(C(=O)N2C=C3CCC(=O)N3Cc3ccccc32)c(Cl)c1 | 133 | IC50 (Vasopressin V2 receptor [6]): 11 nM
16 | 124 | 519 | Cc1ccc(F)cc1C(=O)Nc1ccc(C(=O)N2Cc3cccn3Cc3ccccc32)c(Cl)c1 [LIXIVAPTAN] | 740 | –
